One series has as its system THP-1 cells. Nature of the series: Cytotoxicity studies of digestion media (TCEP). Type of series: cell-based. The note with it: TCEP 0.1 mM to 100 mM, 10 minutes. As to the method:
Human monocyte THP-1 cells (ATTC) were maintained in RPMI 1640 supplemented with 10% FBS, 2 mM L-glutamine, 25 mM HEPES, 100 μg/mL Normocin™ (InvivoGen) and 100 U/mL penicillin and 100 μg/mL streptomycin. Cell lines were maintained in a humidified incubator at 37° C., 5% CO2.
THP-1 cells were incubated with different concentrations of digestion media (TCEP solution in supplemented media), ranging from 0.1 mM to 100 mM, for 10 minutes. Thereafter, digestion media was removed, and cells were stained using the LIVE/DEAD™ fixable Violet Dead Cell Stain Kit (Thermo Fisher Scientific, USA) following the manufacturer's guidelines. Dead cells were analyzed by flow cytometry using a BD LSRFortessa™ flow cytometer.

In a further series the test system is Tregs. Kind of series: CCL22-dependent trans-well migration assay. Type of series: cell-based, C57BL/6 mice. Particulars: 0, 10 and 100 ng/ml, 3 hours, CD3+ T cells. As to the method:
Recruitment of Tregs as a function of CCL22 was assessed in a 24-well plate containing a 5 μm-pore polycarbonate Transwell® filter system (Costar Transwell® permeable support #3421). MNs loaded with incremental amounts of CCL22 ([…] and 100 ng) or equivalent dose of soluble CCL22 were added in the receiver wells and incubated at 37° C. for 1 hour. 5×10^5 CD3^+ T cells were magnetically isolated from C57BL/6 mice using mouse T cell isolation kit (EasySep™, #19851) and resuspended in full culture media and added to the top wells. Cells were then incubated at 37° C. and 5% CO2 for 3 hours. Cells in the receiver well were then harvested and stained with Fixed viability dye, anti-CD3, CD4, CD25, and Foxp3 antibodies and analyzed by flow cytometry.
Next, the biological activity of chemokines when loaded in the MNs was examined. Specifically, the ability of CCL22 to mediate Tregs recruitment when delivered using the MN platform through a trans-well migration assay was studied. Briefly, ranging concentrations of CCL22, either MN-doped or soluble, were incubated with CD3^+ T cells, and the number of migrated Tregs was analyzed after 3 hours of incubation by flow cytometry. […] This can stem from the maintenance of a higher gradient of CCL22 when released from the MNs compared to soluble CCL22 (FIG. 3C).

Experimental findings from patent US20250319292A1, “MICRONEEDLES AND METHODS FOR TREATING THE SKIN” (THE BRIGHAM AND WOMEN'S HOSPITAL, INC., priority 2021, published 2025) are described below.

With `O=C(O)CCP(CCC(=O)O)CCC(=O)O` [TCEP, tris (2-carboxyethyl) phosphine], the cell viability result in the series with THP-1 cells was “highly biocompatible and did not affect cell viability”.

B1: soluble CCL22: C-C motif chemokine 22 added in solution, from PeproTech (protein, UniProt O00626 25-93, looked up)
C-C motif chemokine 22: GPYGANMEDSVCCRDYVRYRLPLRVVKHFYWTSDSCPRPGVVLLTFRDKEICADPRVPWVKMILNKLSQ
As to B1, in the series on Tregs, the “Tregs migration as a function of CCL22 concentration” value is “dose-dependent increase of Tregs migration”.
